Test results published in patent publication US20260042802A1, “POLYPEPTIDE AND USE THEREOF” (priority 2024, published 2026).
Like-named read-outs stand apart in the source and are kept apart here. Where a SMILES comes first, the peptide text is derived from it. Bridges are numbered along the chain shown (N, C = ends).

Experiments:
Nav1.7 channels = target: T1, Nav1.7 channels (Homo sapiens, UniProt Q15858); assay: Whole-cell patch clamp on Nav1.7 overexpressing HEK293 cells; assay type: cell-based; settings: for inhibition at 0.3 µM: HEK293, 300 nM, n=6, read-out: current inhibition
T1 construct: expressed in transfected cells; host or cells: HEK293
T1 sequence (Q15858 whole entry): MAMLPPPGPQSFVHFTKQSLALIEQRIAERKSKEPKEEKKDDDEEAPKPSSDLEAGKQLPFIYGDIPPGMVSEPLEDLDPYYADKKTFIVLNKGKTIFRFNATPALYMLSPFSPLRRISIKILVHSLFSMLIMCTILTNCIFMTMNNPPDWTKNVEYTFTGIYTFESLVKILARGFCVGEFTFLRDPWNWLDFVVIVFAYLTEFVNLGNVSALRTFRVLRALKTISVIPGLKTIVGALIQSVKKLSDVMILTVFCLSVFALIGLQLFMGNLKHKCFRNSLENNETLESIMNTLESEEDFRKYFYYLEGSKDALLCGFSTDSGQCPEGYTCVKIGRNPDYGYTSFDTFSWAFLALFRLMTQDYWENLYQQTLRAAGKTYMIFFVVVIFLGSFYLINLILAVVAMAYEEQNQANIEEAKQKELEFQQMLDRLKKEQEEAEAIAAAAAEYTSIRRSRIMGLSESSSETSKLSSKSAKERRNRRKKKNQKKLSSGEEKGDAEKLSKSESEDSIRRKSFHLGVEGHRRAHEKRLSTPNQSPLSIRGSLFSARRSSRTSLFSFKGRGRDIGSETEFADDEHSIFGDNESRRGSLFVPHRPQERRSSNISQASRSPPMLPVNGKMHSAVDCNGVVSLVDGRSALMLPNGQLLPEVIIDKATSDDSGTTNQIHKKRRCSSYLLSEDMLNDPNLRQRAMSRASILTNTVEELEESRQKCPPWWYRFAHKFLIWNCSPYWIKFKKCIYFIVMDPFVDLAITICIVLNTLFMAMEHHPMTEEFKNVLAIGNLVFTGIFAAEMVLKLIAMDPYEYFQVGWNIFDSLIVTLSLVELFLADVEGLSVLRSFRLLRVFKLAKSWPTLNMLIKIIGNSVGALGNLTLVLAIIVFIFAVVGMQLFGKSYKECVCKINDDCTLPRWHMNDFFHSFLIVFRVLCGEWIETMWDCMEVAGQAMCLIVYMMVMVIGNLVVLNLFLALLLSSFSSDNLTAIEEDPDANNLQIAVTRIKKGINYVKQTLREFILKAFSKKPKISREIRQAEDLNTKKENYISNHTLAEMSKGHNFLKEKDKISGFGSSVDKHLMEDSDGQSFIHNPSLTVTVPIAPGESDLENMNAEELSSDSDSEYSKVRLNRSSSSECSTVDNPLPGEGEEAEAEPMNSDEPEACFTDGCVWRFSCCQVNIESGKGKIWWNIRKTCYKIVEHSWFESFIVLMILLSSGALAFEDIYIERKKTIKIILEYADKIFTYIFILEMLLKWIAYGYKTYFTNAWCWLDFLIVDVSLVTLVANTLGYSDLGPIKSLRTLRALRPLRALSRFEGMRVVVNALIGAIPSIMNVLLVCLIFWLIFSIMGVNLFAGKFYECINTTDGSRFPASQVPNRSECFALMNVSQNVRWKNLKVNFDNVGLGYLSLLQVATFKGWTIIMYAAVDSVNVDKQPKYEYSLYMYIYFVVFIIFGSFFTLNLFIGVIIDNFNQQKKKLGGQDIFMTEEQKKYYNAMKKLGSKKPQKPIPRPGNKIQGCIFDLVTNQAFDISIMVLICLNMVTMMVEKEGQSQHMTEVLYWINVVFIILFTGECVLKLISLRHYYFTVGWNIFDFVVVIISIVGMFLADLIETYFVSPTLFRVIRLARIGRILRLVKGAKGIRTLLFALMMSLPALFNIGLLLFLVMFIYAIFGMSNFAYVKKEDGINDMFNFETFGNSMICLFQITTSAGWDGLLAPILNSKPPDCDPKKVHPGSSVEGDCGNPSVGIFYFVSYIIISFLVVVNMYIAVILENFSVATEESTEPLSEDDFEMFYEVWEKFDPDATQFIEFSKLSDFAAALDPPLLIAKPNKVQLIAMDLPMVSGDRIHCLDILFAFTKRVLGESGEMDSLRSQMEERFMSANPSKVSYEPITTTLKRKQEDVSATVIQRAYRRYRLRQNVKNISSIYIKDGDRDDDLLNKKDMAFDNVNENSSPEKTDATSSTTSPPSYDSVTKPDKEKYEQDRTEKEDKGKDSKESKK
Experimental: The recording electrode used in the present example is a glass microelectrode, which is prepared as follows: The glass electrode blanks (outer diameter of 1.50 mm, inner diameter of 0.84 mm) are prepared into single-tube glass microelectrodes with tip diameters of 1-2 μm in four steps using the P-1000 Microelectrode Horizontal Puller for subsequent experiments. Be careful not to touch the heated platinum sheet in the center when pulling the electrode, and be careful not to touch the tip of the pulled electrode to prevent the tip from breaking. Since the tip of the glass microelectrode is highly susceptible to dust attraction, it is generally prepared for use now and should not be left overnight.
Glass microelectrodes are used as follows: rinse clean the glass microelectrodes before use; then put all the glass microelectrodes in a large beaker; add anhydrous ethanol so that the glass microelectrodes are completely immersed in anhydrous ethanol; and place the beaker in an ultrasonic cleaner with ultrasonic vibration for 30 min. Subsequently, pour out the anhydrous ethanol; rinse out the glass microelectrode with ultrapure water 3-4 times; use another small beaker to cover the microelectrode so as not to contaminate the electrode with dust; put the glass microelectrode into the oven for drying; and put the glass microelectrode into a clean box for spare use after drying.
In the patch clamp experiments, the measured sodium currents are corrected for leakage currents, and the primary data of the experiments are recorded using Clampfit 10.6, and the data acquisition is performed by the pCLAMP software. Three to five sweeps are selected for analysis, (sweep, which is a term used in patch clamp software and consists of a series of sampling points) in which the current is in a stable state before the addition of the polypeptide. The average value of the peak current is thus calculated as the control current amplitude. Then 3-5 sweeps in which the current is in a stable state after the addition of polypeptide are selected and analyzed, and the average value of the residual peak current is calculated as the residual current amplitude.
The electrical stimulation effect of polypeptides PPN-01 to PPN-16 on Nav1.7 overexpressing HEK293 cells is studied using the glass microelectrodes obtained from the above preparations and the whole-cell patch clamp techniques (n=1). In a voltage-clamp mode, the clamp voltage is kept at −90 mV; a square-wave stimulus depolarized from −90 mV to +40 mV with a duration of 30 ms is applied; the concentration of each dosing (polypeptide) is 300 nM; and validation is repeated for the six polypeptides that show a significant effect (n=2).
In a voltage-clamp mode, the clamp voltage is kept at −90 m V and a square-wave stimulus depolarized from −90 mV to +40 mV with a duration of 30 ms is applied.
2. The electrical stimulation effect of the polypeptide PPN-01 provided in Example 1 on Nav1.4, Nav1.5, Nav1.6, and Nav1.7 overexpressing HEK293 cells is studied using the glass microelectrodes obtained from the above preparations and employing the whole-cell patch clamp techniques (n=5). In a voltage-clamp mode, the clamp voltage is kept at −90 mV; a square-wave stimulus depolarized from −90 mV to +40 mV with a duration of 30 ms is applied; and a concentration of each dosing (polypeptide) is 300 nM.
3. After establishing whole-cell patch clamp configuration using glass microelectrodes filled with internal electrode solution and HEK293 cells overexpressing Nav1.4, Nav1.5, Nav1.6, or Nav1.7, the polypeptides provided in Example 1 are applied separately. In a voltage-clamp mode, the clamp voltage is kept at −90 m V and a square-wave stimulus depolarized from −90 m V to +40 m V with a duration of 30 ms is applied. […]

Nav1.6 = target: T2, Nav1.6 (Homo sapiens, UniProt Q9UQD0); assay: Whole-cell patch clamp on Nav1.6 overexpressing HEK293 cells; assay type: cell-based; settings: 300 nM; −90 mV to +40 mV, 30 ms; n=5
T2 construct: expressed in transfected cells; host or cells: HEK293
T2 sequence (Q9UQD0 whole entry): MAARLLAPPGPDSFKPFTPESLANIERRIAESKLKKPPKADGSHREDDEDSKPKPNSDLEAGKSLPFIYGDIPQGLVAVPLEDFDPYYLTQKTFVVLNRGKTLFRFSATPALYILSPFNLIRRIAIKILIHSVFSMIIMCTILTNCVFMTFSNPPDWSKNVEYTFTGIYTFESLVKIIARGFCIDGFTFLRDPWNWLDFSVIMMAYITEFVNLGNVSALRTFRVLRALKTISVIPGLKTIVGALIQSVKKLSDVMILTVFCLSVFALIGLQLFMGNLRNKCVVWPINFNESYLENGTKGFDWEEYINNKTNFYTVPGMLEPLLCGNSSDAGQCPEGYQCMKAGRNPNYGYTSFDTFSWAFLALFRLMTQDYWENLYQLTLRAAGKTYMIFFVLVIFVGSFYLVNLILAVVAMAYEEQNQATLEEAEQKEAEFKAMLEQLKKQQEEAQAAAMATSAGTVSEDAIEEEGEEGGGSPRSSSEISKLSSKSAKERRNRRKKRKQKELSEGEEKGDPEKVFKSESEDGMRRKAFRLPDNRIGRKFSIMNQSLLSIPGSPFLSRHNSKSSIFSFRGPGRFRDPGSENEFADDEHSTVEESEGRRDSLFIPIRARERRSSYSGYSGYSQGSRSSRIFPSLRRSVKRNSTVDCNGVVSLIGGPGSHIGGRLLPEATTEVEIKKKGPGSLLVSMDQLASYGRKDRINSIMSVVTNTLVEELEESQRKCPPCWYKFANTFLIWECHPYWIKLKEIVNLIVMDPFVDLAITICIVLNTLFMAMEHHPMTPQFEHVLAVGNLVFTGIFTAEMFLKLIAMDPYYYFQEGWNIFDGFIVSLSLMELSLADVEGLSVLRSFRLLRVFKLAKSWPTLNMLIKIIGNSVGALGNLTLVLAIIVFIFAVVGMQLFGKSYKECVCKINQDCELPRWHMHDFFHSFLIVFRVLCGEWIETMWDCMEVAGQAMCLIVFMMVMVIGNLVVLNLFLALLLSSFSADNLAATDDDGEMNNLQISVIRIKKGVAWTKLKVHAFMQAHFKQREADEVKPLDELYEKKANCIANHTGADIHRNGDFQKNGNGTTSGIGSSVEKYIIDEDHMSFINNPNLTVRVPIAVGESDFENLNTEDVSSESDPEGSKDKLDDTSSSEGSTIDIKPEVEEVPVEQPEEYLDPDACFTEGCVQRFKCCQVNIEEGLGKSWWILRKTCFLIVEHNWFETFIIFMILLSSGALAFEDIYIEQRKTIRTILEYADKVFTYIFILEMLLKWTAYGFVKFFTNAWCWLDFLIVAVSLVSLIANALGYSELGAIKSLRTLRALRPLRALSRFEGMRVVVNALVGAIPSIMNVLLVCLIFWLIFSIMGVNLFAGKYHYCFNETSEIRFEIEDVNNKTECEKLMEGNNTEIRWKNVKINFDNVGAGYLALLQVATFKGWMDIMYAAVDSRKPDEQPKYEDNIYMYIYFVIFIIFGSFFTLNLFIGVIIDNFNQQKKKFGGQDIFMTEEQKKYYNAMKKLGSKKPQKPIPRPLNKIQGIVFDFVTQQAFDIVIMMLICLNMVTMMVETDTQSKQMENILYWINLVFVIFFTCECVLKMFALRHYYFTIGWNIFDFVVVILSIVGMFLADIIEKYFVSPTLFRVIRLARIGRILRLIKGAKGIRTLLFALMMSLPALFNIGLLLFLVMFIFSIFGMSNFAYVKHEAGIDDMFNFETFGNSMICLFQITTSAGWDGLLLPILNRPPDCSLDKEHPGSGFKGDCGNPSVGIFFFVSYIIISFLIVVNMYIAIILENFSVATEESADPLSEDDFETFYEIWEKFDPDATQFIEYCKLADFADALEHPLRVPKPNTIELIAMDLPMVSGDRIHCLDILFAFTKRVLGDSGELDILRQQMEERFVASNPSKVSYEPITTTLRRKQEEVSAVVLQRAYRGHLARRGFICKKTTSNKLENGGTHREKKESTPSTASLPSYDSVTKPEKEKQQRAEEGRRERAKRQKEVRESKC
Experimental: The effect of the polypeptide PPN-01 provided in Example 1 on voltage gated sodium channels is studied using the glass microelectrodes prepared as described above in Example 2 and employing the whole-cell membrane clamp techniques. The specific operations are as follows:
1. Firstly, internal electrode solution is placed on ice to defrost; after defrosting, an appropriate amount of internal electrode solution is drawn up with a 1 ml syringe; and after a homemade filler is applied to the tip end of the syringe, the air in the tube is emptied to fill the entire filler with internal electrode solution. Secondly, internal electrode solution in the filler is poured into the glass microelectrode from a rear part thereof by using the rear part perfusion method; internal electrode solution is slowly injected into the glass microelectrode; and the amount of perfusion is generally ⅓ to ½ of a length of the glass microelectrode (it is necessary to ensure that the silver wire of the electrode may fully contact internal electrode solution, but also to avoid electrode contamination resulting from too much internal electrode solution). […]

## CSCC[C@@H]1NC(=O)CNC(=O)[C@H](CCC(=O)O)NC(=O)[C@@H]2CSSC[C@H](NC(=O)[C@H](Cc3ccc(O)cc3)NC(C)=O)C(=O)N[C@@H](CCC(N)=O)C(=O)N[C@@H](CCCCN)C(=O)N[C@@H](Cc3ccccc3)C(=O)N[C@@H](CC(C)C)C(=O)N[C@@H](C)C(=O)N3CCC[C@H]3C(=O)N[C@H]3CSSC[C@H](NC(=O)[C@H](CCC(=O)O)NC1=O)C(=O)N[C@@H](CCCCN)C(=O)N[C@@H](CC(C)C)C(=O)N[C@@H](Cc1c[nH]c4ccccc14)C(=O)N[C@H](C(=O)N[C@@H](CCCCN)C(=O)N[C@@H](CCCCN)C(=O)N[C@@H](CCCCN)C(=O)N[C@@H](CC(C)C)C(=O)N[C@@H](Cc1c[nH]c4ccccc14)C(N)=O)CSSC[C@H](NC(=O)[C@H](CCCCN)NC(=O)[C@H](CCCNC(=N)N)NC(=O)[C@H](CCC(=O)O)NC(=O)[C@H](CO)NC(=O)[C@H](CC(=O)O)NC3=O)C(=O)N2 [PPN-01] (Ac-YCQKFLAPCDSERKCCEGMECKLWCKKKLW-NH2; disulfide 2-16, 9-21, 15-25)
Nav1.7 channels; 300 nM polypeptide, clamp −90 mV, depolarized to +40 mV, 30 ms, vs negative control, n=1 (n=2 for six polypeptides)
  inhibition of Nav1.7 overexpressing HEK293 cells (current traces): significant inhibition
Nav1.7 channels; 300 nM, −90 mV to +40 mV, 30 ms, n=5
  inhibition effect on Nav1.7 overexpressing HEK293 cells: significant inhibition effect
Nav1.7 channels; membrane potential +40 mV
  inhibition at 0.3 µM: 89.6%
Nav1.7 channels; membrane potential −30 mV
  inhibition at 0.3 µM: 73.6%
Nav1.7 channels; membrane potential −40 mV
  inhibition at 0.3 µM: 43.6%
Nav1.7 channels; concentration-response of Nav1.7 peak current inhibition
  Hill coefficient: 1.18
Nav1.6
  inhibition effect on Nav1.6 overexpressing HEK293 cells: no significant inhibition effect
